Columns and labels:
OSC19 and HSC4 cells [1] = test: Cell viability by Celltiter-Glo after 72 hours with pimozide or sulfasalazine; assay type: cell-based; settings: FIGS. 7 and 8; for sensitivity of OSC19 cells versus HSC4 cells (cell viability): pimozide 0.3-100 μM, sulfasalazine 10-1000 μM
Experimental: Cell viability was examined for OSC19 and HSC4 cells incubated in a medium supplemented with US077 (pimozide). […] OSC19 and HSC4 cells were seeded in 96-well plates at 3000 cells/well and 2000 cells/well, respectively. On the following day, 0 μM (no addition), 0.3 μM, 1 μM, 3 μM, 10 μM, 30 μM, or 100 μM of pimozide or 0 μM (no addition), 10 μM, 30 μM, 100 μM, 300 μM, or 1000 μM of sulfasalazine were added. Then, the cells were incubated for 72 hours and cell viability was measured using Celltiter-Glo (Promega).

OSC19 and HSC4 cells [2] = test: Intracellular reactive oxygen species by H2DCFDA staining with pimozide or sulfasalazine; assay type: cell-based; settings: 24 hours, FIG. 11; for inductive effect on intracellular accumulation of reactive oxygen species, OSC19 versus HSC4: pimozide 1, 3, 10 μM, sulfasalazine 300 μM
Experimental: OSC19 and HSC4 cells were seeded onto 24-well glass-bottomed plate at 1×10^5 cells/well. On the following day, 0 μM (no addition), 1 μM, 3 μM, or 10 μM of pimozide or 300 μM of sulfasalazine was added. Subsequently, the cells were incubated for 24 hours, stained with H2DCFDA to visualize intracellular reactive oxygen species, and observed under a fluorescence microscope.

OSC19 = test: Combined use of pimozide and sulfasalazine, cell viability by CellTiter-Glo after 72 hours; assay type: cell-based; settings: 150 μM of sulfasalazine alone, OSC19, 72 hours
Experimental: Oral squamous cell carcinoma cell line, OSC19, was seeded onto 96-well plates at 3000 cells/well. On the following day, a combination of 0 μM (no addition; only DMSO), 1 μM, 2 μM, or 3 μM of pimozide, and 0 μM (no addition; only DMSO), 10 μM, 50 μM, 100 μM, 150 μM, or 200 μM of sulfasalazine was added. Subsequently, cells were incubated for 72 hours, and cell viability was measured using a CellTiter-Glo Luminescent Cell Viability Assay kit (Promega). Effects obtained using pimozide and sulfasalazine at different concentrations are shown in a graph in FIG. 14.

OSC19 and HSC4 cells [3] = test: Cell viability by Celltiter-Glo after 72-hour incubation with sertindole; assay type: cell-based; settings: sertindole 0.19-45.00 μM, FIG. 12
Experimental: OSC19 and HSC4 cells were seeded in 96-well plates at 3000 cells/well and 2000 cells/well, respectively, and started to be incubated. Two days after the beginning of the incubation, 0 μM (no addition), 0.19 μM, 0.56 μM, 1.67 μM, 5.00 μM, 15.00 μM, or 45.00 μM of sertindole was added. After 72-hour incubation, the number of the survived cells was measured using Celltiter-Glo (registered trademark) (Luminescent Cell Viability Assay; Promega). A ratio of the number of the survived cells to the number of the cells on the first day of incubation was calculated as a cell viability value.

OSC19 cells [4] = test: Ratio of H2DCFDA-stained cells to Hoechst33342-stained cells with sertindole or sulfasalazine; assay type: cell-based; settings: 10 μM sertindole versus 300 μM sulfasalazine, 24 hours; FIG. 13
Experimental: OSC19 cells were seeded onto 24-well glass-bottomed plate at 1×10^5 cells/well and started to be incubated. Two days after the beginning of the incubation, 0.1 μM, 1 μM, or 10 μM of sertindole or 300 μM of sulfasalazine was added. DMSO was added to the control. The cells were then incubated for 24 hours, and 2′,7′-dichloro-dihydro-fluorescein-diacetate (H2DCFDA), which is a redox fluorescence indicator capable of emitting fluorescence when oxidized by reactive oxygen species in cells and Hoechst33342 that stains a cell nucleus were added. A ratio of the number of cells stained with H2DCFDA to the number of cells stained with Hoechst33342 was calculated.

[5] = tested on: HSC2, HSC3, HSC4, and OSC19 cells; test: Sensitivity of squamous cell carcinoma cell lines to cisplatin, cell viability by Celltiter-Glo after 72 hours; assay type: cell-based; settings: OSC19 compared with HSC2, HSC3, and HSC4, cisplatin 1, 2.5, 5, 7.5 μM, FIG. 3
Experimental: Next, GSH levels in the cells were measured using GSH-Glo™ Glutathione Assay (Promega) to examine the correlation with the CD44v expression. Furthermore, in order to examine the sensitivity of the cell lines in which CD44 expression is suppressed to cisplatin, each cell line was seeded onto a 96-well plate at 2000 cells/well and cisplatin was added the following day at concentrations of 1, 2.5, 5, and 7.5 μM. After 72 hours, the cell viability was measured using Celltiter-Glo (Promega).

OSC19 cells [6] = test: Level of reactive oxygen species by H2DCFDA staining, fluorescence microscopy; assay type: cell-based; settings: 10 μM, 24 hours, FIG. 6
Experimental: Next, change in level of reactive oxygen species by the compounds having a high selectivity to OSC19 was examined. OSC19 cells were seeded onto 24-well glass-bottomed plate at 1×10^5 cells/well, and each compound was added at 10 μM on the following day. Subsequently, the cells were incubated for 24 hours, stained with 2′,7′-dichloro-dihydro-fluorescein-diacetate (H2DCFDA), which is a redox fluorescence indicator, and observed under a fluorescence microscope. In addition, their ability of inducing the reactive oxygen species was evaluated according to the fluorescence intensity. FIG. 6 is fluorescence micrographs of OSC19 cells treated with the compounds given in Table 1, showing the increase in ROS in OSC19 cells scored on 4 rating scales. The “4 rating scales” are as follows.

OSC19 cells [7] = test: Subcutaneous OSC19 transplant in nude mice, tumor volume and tumor mass; assay type: in vivo; settings: 1 mg/kg intraperitoneally once daily from day 5 to day 35 versus saline; FIGS. 9 and 10
Experimental: Next, 1×10^6 OSC19 cells were subcutaneously transplanted into nude mice. After 5 days of transplantation, 1 mg/kg of pimozide or saline was intraperitoneally administered once daily to day 35. Short and long axes of each tumor were measured once every 3-4 days and a volume of the tumor was calculated using the following equation. Tumor volume=(long axis×(short axis)^2)/2 Specific tumor volume=tumor volume on the day measured/tumor volume at the beginning of administration Statistic analysis of the tumor volume was performed using Two-way ANOVA. Each tumor was removed after the treatment experiments and the mass of the tumor was measured. Statistic analysis of the tumor mass was performed using a t-test.

Molecule: Sulfasalazine
- sensitivity of OSC19 cells versus HSC4 cells (cell viability) (OSC19 and HSC4 cells [1]): higher sensitivity to sulfasalazine than the HSC4 cells
- inductive effect on intracellular accumulation of reactive oxygen species, OSC19 versus HSC4 (OSC19 and HSC4 cells [2]): selectively in OSC19 cells as in the case of sulfasalazine
- mortality of cells (OSC19): about 30%

Molecule: O=C1NCCN1CCN1CCC(c2cn(-c3ccc(F)cc3)c3ccc(Cl)cc23)CC1 [sertindole, Sertindole]
- inhibition of cell proliferation, OSC19 versus HSC4 (cell viability) (OSC19 and HSC4 cells [3]): cell proliferation was inhibited by the addition of a lower concentration of sertindole for OSC19 than for HSC4
- intracellular ROS level (H2DCFDA-stained / Hoechst33342-stained cells) compared with sulfasalazine (OSC19 cells [4]): intracellular ROS level was higher as compared with a case where sulfasalazine was added at 30 times higher concentration

Molecule: N.N.[Cl][Pt][Cl] [cisplatin]
- sensitivity to cisplatin (cell viability) [5]: significantly lower in sensitivity to cisplatin

Molecule: O=c1[nH]c2ccccc2n1C1CCN(CCCC(c2ccc(F)cc2)c2ccc(F)cc2)CC1 [pimozide, Pimozide]
- increase in ROS in OSC19 cells scored on 4 rating scales (OSC19 cells [6]): significantly great increase in ROS level
- inhibitory effect on cell proliferation, concentration compared with sulfasalazine (OSC19 and HSC4 cells [1]): inhibitory effect on cell proliferation at a lower concentration than sulfasalazine
- sensitivity of OSC19 cells versus HSC4 cells (cell viability) (OSC19 and HSC4 cells [1]): higher sensitivity to pimozide than the HSC4 cells
- tumor volume and tumor mass on day 35 (proliferation of OSC19 cells in mice) (OSC19 cells [7]): inhibition of proliferation of the OSC19 cells
- inductive effect on intracellular accumulation of reactive oxygen species compared with sulfasalazine (OSC19 and HSC4 cells [2]; pimozide 1, 3, 10 μM versus sulfasalazine 300 μM): significantly greater inductive effect on intracellular accumulation of reactive oxygen species at a significantly lower concentration as compared with sulfasalazine
- inductive effect on intracellular accumulation of reactive oxygen species, OSC19 versus HSC4 (OSC19 and HSC4 cells [2]): inductive effect on intracellular accumulation of reactive oxygen species selectively in OSC19 cells
